# *1 amine or outer side, *2 acyl side, *3 side chain or, on linkers, in order; H or OH if unused. Where a SMILES comes first, the peptide text is derived from it. Bridges are numbered along the chain shown (N, C = ends). [ ]: non-standard residue; d: D form. The star is where a group is joined. hPhe(3-Cl-4-CF3) = N[C@@H](CCc1ccc(C(F)(F)F)c(Cl)c1)C(=O)O; NPrPhe(4-CF3) = CCCN[C@@H](Cc1ccc(C(F)(F)F)cc1)C(=O)O; X20 = CCCN([C@@H](CC1CCC(F)(F)CC1)C(=O)[*:2])[*:1]; NMeGly(cPent) = CN[C@H](C(=O)O)C1CCCC1; NEtLeu = CCN[C@@H](CC(C)C)C(=O)O; NMeD = CN[C@@H](CC(=O)O)C(=O)O; NMeL = CN[C@@H](CC(C)C)C(=O)O; Morpholide = C1CN(*)CCO1; NMeA = CN[C@@H](C)C(=O)O; Ac5c = NC1(C(=O)O)CCCC1; Aze = O=C(O)[C@@H]1CCN1; Sar = CNCC(=O)O
# Experiments:
# [1] = biological target: GDP-bound HRAS wild-type protein (Homo sapiens, UniProt P01112); test: Binding to HRAS by surface plasmon resonance (SPR), Single Cycle Kinetics; details: for HRAS/KRAS (ratio of KD value with respect to HRAS to KD value with respect to KRAS): GDP-bound HRAS wild-type vs GDP-bound KRAS wild-type
# [2] = biological target: GDP-bound NRAS wild-type protein (Homo sapiens, UniProt P01111); test: Binding to NRAS by surface plasmon resonance (SPR), Single Cycle Kinetics; details: for NRAS/KRAS (ratio of KD value with respect to NRAS to KD value with respect to KRAS): GDP-bound NRAS wild-type vs GDP-bound KRAS wild-type
# Chain of GDP-bound NRAS wild-type protein (P01111 whole entry): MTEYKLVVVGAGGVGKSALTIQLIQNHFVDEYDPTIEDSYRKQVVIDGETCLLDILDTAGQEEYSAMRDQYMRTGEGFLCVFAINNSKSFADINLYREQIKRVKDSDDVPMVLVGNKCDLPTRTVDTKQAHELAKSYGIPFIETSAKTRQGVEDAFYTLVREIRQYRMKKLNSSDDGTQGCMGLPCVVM
# Chain of GDP-bound HRAS wild-type protein (P01112 whole entry): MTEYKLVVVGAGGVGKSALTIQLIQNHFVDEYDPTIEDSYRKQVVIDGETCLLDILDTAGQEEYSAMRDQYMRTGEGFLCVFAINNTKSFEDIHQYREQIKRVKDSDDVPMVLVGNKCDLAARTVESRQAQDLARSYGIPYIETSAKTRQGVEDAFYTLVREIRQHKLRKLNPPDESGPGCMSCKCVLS
structure (smiles),measurement,setting,value
CCCN1C(=O)[C@@H]2CCN2C(=O)[C@H](C)N(C)C(=O)[C@H]([C@@H](C)CC)NC(=O)[C@H](CC(C)C)N(C)C(=O)C[C@@H](C(=O)N2CCOCC2)N(C)C(=O)[C@H](C2CCCC2)N(C)C(=O)C2(CCCC2)NC(=O)[C@@H]2CCCN2C(=O)[C@H](CCc2ccc(C(F)(F)F)c(Cl)c2)NC(=O)CN(C)C(=O)[C@@H]1CC1CCC(F)(F)CC1 [PP0527] ([NMeL]I[NMeA][Aze][X20][Sar][hPhe(3-Cl-4-CF3)]P[Ac5c][NMeGly(cPent)][NMeD]-Morpholide; lactam N-11),HRAS/KRAS (ratio of KD value with respect to GDP-bound HRAS wild-type protein to KD value with respect to KRAS),"[1]; KD ratio HRAS/KRAS, SPR",C (A compound having a KD ratio of 0.1 or more and less than 3 is denoted as C)
same,NRAS/KRAS (ratio of KD value with respect to GDP-bound NRAS wild-type protein to KD value with respect to KRAS),"[2]; KD ratio NRAS/KRAS, SPR",C (A compound having a KD ratio of 0.1 or more and less than 3 is denoted as C)
CCCC[C@H]1C(=O)N[C@@H]([C@@H](C)CC)C(=O)N(C)CC(=O)N(C)[C@H]2C/C=C\CCN(C2=O)[C@@H](Cc2ccc(C(F)(F)F)cc2)C(=O)N(C)CC(=O)N[C@@H](CCc2cc(F)c(C(F)(F)F)c(F)c2)C(=O)N2C[C@H](OCC)C[C@H]2C(=O)NC2(CC(C)(C)C2)C(=O)N(C)[C@@H](C2CCCC2)C(=O)N(C)[C@H](C(=O)N(C)CC)CC(=O)N1C [PP2806],HRAS/KRAS (ratio of KD value with respect to GDP-bound HRAS wild-type protein to KD value with respect to KRAS),"[1]; KD ratio HRAS/KRAS, class symbols",A (a compound having 10 or more and less than 20 is denoted as A)
same,NRAS/KRAS (ratio of KD value with respect to GDP-bound NRAS wild-type protein to KD value with respect to KRAS),"[2]; KD ratio NRAS/KRAS, class symbols",A (a compound having 10 or more and less than 20 is denoted as A)
CCCN1C(=O)[C@@H]2CCN2C(=O)[C@H](C)N(C)C(=O)[C@H]([C@@H](C)CC)NC(=O)[C@H](CC(C)C)N(CC)C(=O)C[C@@H](C(=O)N2CCOCC2)N(C)C(=O)[C@H](C2CCCC2)N(C)C(=O)C2(CCCC2)NC(=O)[C@@H]2CCCN2C(=O)[C@H](CCc2ccc(C(F)(F)F)c(Cl)c2)NC(=O)CN(C)C(=O)[C@@H]1Cc1ccc(C(F)(F)F)cc1 [PP0151] ([NEtLeu]I[NMeA][Aze][NPrPhe(4-CF3)][Sar][hPhe(3-Cl-4-CF3)]P[Ac5c][NMeGly(cPent)][NMeD]-Morpholide; lactam N-11),HRAS/KRAS (ratio of KD for GDP-bound HRAS wild-type to KD for KRAS),"[1]; KD ratio HRAS/KRAS, SPR",C (A compound having a KD ratio of 0.1 or more and less than 3 is denoted as C)
same,NRAS/KRAS (ratio of KD for GDP-bound NRAS wild-type to KD for KRAS),"[2]; KD ratio NRAS/KRAS, SPR",C (A compound having a KD ratio of 0.1 or more and less than 3 is denoted as C)
"CCC[C@H]1C(=O)N[C@@H]([C@@H](C)CC)C(=O)N2CCC[C@H]2C(=O)N(C)[C@H]2C/C=C\CCN(C2=O)[C@@H](Cc2ccc(C)cc2)C(=O)N(C)CC(=O)N[C@@H](CCc2cc(F)c(C(F)(F)F)c(F)c2)C(=O)N2C[C@H](OCC)C[C@H]2C(=O)N(C)C2(CCC2)C(=O)N(C)[C@@H](C2CCCC2)C(=O)N(C)[C@H](C(=O)N2CCCC2)CC(=O)N1C [PP3117, (1S,4S,10S,13S,17S,20S,26S,28R,32S,38S,42Z)-20-cyclopentyl-32-[2-[3,5-difluoro-4-(trifluoromethyl)phenyl]ethyl]-28-ethoxy-2,14,18,21,24,36-hexamethyl-10-[(1S)-1-methylpropyl]-13-propyl-38-(p-tolylmethyl)-17-(pyrrolidine-1-carbonyl)spiro[2,8,11,14,18,21,24,30,33,36,39-undecazatetracyclo[37.5.1.0^4,8.0^26,30]pentatetracont-42-ene-23,1′-cyclobutane]-3,9,12,15,19,22,25,31,34,37,45-undecone]",HRAS/KRAS (ratio of KD value with respect to GDP-bound HRAS wild-type protein to KD value with respect to KRAS),"[1]; KD ratio HRAS/KRAS, SPR, GDP-bound wild-type proteins",A (a compound having 10 or more and less than 20 is denoted as A)
same,NRAS/KRAS (ratio of KD value with respect to GDP-bound NRAS wild-type protein to KD value with respect to KRAS),"[2]; KD ratio NRAS/KRAS, SPR, GDP-bound wild-type proteins",A (a compound having 10 or more and less than 20 is denoted as A)
C=CCN1CC(=O)N(C)[C@H]2C/C=C\CCN(C2=O)[C@@H](Cc2ccc(C)cc2)C(=O)N(C)CC(=O)N[C@@H](CCc2ccc(C(F)(F)F)c(OC)c2)C(=O)N2C[C@H](OCC)C[C@H]2C(=O)NC2(CC(C)(C)C2)C(=O)N(C)[C@@H](C2CCCC2)C(=O)N(C)[C@H](C(=O)N(C)C)CC(=O)N(C)[C@@H](CCC)C(=O)N[C@@H]([C@@H](C)CC)C1=O [PP2098],HRAS/KRAS (ratio of KD value with respect to HRAS to KD value with respect to KRAS),[1]; SPR,A (a compound having 10 or more and less than 20 is denoted as A)
same,NRAS/KRAS (ratio of KD value with respect to NRAS to KD value with respect to KRAS),[2]; SPR,A (a compound having 10 or more and less than 20 is denoted as A)
CCO[C@@H]1C[C@H]2C(=O)NC3(CCCC3)C(=O)N(C)[C@@H](C3CCCC3)C(=O)N(C)[C@H](C(=O)N(C)C)CC(=O)N(C)[C@@H](CC(C)C)C(=O)N[C@@H]([C@@H](C)CC)C(=O)N(C)CC(=O)N(C)[C@H]3C/C=C\CCN(C3=O)[C@@H](Cc3ccc(C(F)(F)F)cc3)C(=O)N(C)CC(=O)N[C@@H](CCc3cc(F)c(C(F)(F)F)c(F)c3)C(=O)N2C1 [PP1105],HRAS/KRAS (ratio of KD value with respect to HRAS to KD value with respect to KRAS),"[1]; KD ratio, SPR",A (a compound having 10 or more and less than 20 is denoted as A)
same,NRAS/KRAS (ratio of KD value with respect to NRAS to KD value with respect to KRAS),"[2]; KD ratio, SPR",A (a compound having 10 or more and less than 20 is denoted as A)

# From US20250230193A1, “CYCLIC COMPOUND HAVING SELECTIVE KRAS INHIBITORY EFFECT ON HRAS AND NRAS” (CHUGAI SEIYAKU KABUSHIKI KAISHA, priority 2022, published 2025)
